Several values for one entry are separate records, joined by “and”; a condition that tells them apart may be missing. Equal entries are not always repeated. Where two headings read alike, the source gives them in different places.
How the values were obtained:
[1] = system: male CD-1 mice; assay: Mouse forced swim test; format: in vivo; conditions: for Latency to Immobility / Time Immobile 0-2 min / Time Immobile 0-6 min / Time Immobile 2-6 min: 30 min pretreatment, individual animals; for Latency to Immobility, Average / Time Immobile 0-2 min, Average / Time Immobile 0-6 min, Average / Time Immobile 2-6 min, Average: group average N = 10
Procedure: Objective: A study was performed to assess the potential efficacy of Compound A using the mouse forced swim test. The forced swim test is a model of behavioral despair, and is sensitive to detection of various classes of antidepressant drugs (Can et al., The Mouse Forced Swim Test. J. Vis. Exp. 2012 (59), e3638, DOI:10.3791/3638). Study Design: Forty (40) male CD-1 mice received a 1-week period of acclimation to the test facility prior to the commencement of testing (events summarized in Table 1). […] All animal use procedures were performed in accordance with the principles of the Canadian Council on Animal Care (CCAC). Formulation of Compound A: Compound A (99.4% pure) was weighed (no correction for purity) and dissolved in DMSO at 20× the intended final concentration. The 20×DMSO stock solution of Compound A was diluted 20 fold with 0.5% methyl cellulose in water to achieve the final desired concentration. […] The above formulation was kept at room temperature and stirred continuously or vortex mixed prior to each dose administration. Forced swim test: Forty (40) male CD-1 mice received the appropriate dose of the vehicle, test article, or positive control (treatments summarized in Table 3). Following a pre-determined pre-treatment time (Can et al., 2012), animals were gently placed into tall glass cylinders filled with water (20-25° C.). […] The swim test involved scoring the duration of immobility. Over a 6-minute test session, the latency to first immobility was recorded (in seconds). […] Statistical Analysis: The results in Table 4 were tested for significance using T-, univariate, and Dunnett's tests as shown in Tables 5-14.

[2] = Blood and brain collection after forced swim test (total brain-to-plasma ratio); format: in vivo; conditions: CD-1, brain and plasma, mouse, immediately following the forced swim test, read-out: total brain-to-plasma ratio (B/P ratio)
Procedure: Blood and Brain Collection: Immediately following the forced swim test, all animals dosed with test article were anesthetized with isoflurane inhalant, and terminal blood collection (˜1 ml) was performed via cardiac puncture into potassium EDTA blood collection tubes (SOP ROD.14.02). Plasma was isolated from whole blood by centrifugation at 3000 rpm at 4° C. for 5 minutes. Once isolated, plasma was placed in cryovials and frozen at −80° C. until shipment for bioanalysis. Following blood collection, animals were decapitated and the whole brain collected as per standard operating procedure (SOP ROD.59). Brains were weighed, flash frozen, and stored at −80° C. until shipment.

## Cc1cc(N2CCc3cc(F)ccc3C2)cc(C)c1NC(=O)CC(C)(C)C [Compound A, N-[4-(6-fluoro-3,4-dihydro-1H-isoquinolin-2-yl)-2,6-dimethylphenyl]-3,3-dimethylbutanamide]
[1]; Compound A 1 mg/kg IP
  Latency to Immobility: 77 s and 84 s and 206 s and 100 s and 70 s and 109 s and 144 s and 105 s and 130 s and 80 s
  Time Immobile 0-2 min: 32 sec and 28 sec and 0 sec (3×) and 16 sec and 20 sec (2×) and 4 sec and 7 sec
  Time Immobile 0-6 min: 174 s and 198 s and 33 s and 125 s and 169 s and 196 s and 134 s and 141 s and 170 s
  Time Immobile 2-6 min: 142 s and 170 s and 33 s and 109 s and 149 s and 192 s and 134 s and 189 s and 141 s and 150 s
  Latency to Immobility, Average: 110.5 s
  Time Immobile 0-2 min, Average: 12.7 s
  Time Immobile 0-6 min, Average: 153.6 s
  Time Immobile 2-6 min, Average: 140.9 s
[1]; Compound A 3 mg/kg IP
  Latency to Immobility: 135 s and 165 s and 155 s and 86 s and 150 s and 127 s and 192 s and 162 s and 83 s and 105 s
  Time Immobile 0-2 min: 0 sec (7×) and 23 sec and 21 sec and 15 sec
  Time Immobile 0-6 min: 166 s and 144 s and 122 s and 207 s and 82 s and 146 s and 101 s and 90 s and 184 s and 181 s
  Time Immobile 2-6 min: 166 s and 144 s and 122 s and 184 s and 82 s and 146 s and 101 s and 90 s and 163 s
  Latency to Immobility, Average: 136.0 s
  Time Immobile 0-2 min, Average: 5.9 s
  Time Immobile 0-6 min, Average: 142.3 s
  Time Immobile 2-6 min, Average: 136.4 s
[1]; Tables 5-13
  effect in the mouse forced swim test model (in words): statistically significant effects
[2]; 1 mg/kg IP
  Kp at 36 min: 2.2
[2]; 3 mg/kg IP
  Kp at 36 min: 2.2

— patent US12178811B2, “Methods of treating depressive disorders” (priority 2019, dated 2024)
